“Also recorded” adds a separate entry of the source.
Key:
[1] = system: kidney and liver function; experiment: Chronic feeding of ketone supplements: serum clinical chemistry for kidney and liver function; type: in vivo, Sprague Dawley rats; parameters: key: ns = no change from control; conditions: rat serum, 15 weeks, vs SD-fed control
Source text: (§1) Male Sprague Dawley rats (N=10/group) were fed ad libitum (approximate dose based on food intake recorded during study) for the study duration (15 weeks).
(§2) Measured Parameters: • Weight • Food/calorie intake • Blood glucose • Blood ketones • Triglycerides • Total Cholesterol • HDL • LDL • Safety/toxicity—serum clinical chemistry tests for kidney and liver function Inflammatory Profile: […]

[2] = system: serum cytokines/chemokines; experiment: Chronic feeding of ketone supplements: serum inflammatory profile; type: in vivo, Sprague Dawley rats; parameters: key to MIP-1a, change from control / IL-4, change from control / IL-1b, change from control / IL-2, change from control / IL-10, change from control / IFNy, change from control / IL-5, change from control / IL-17a, change from control / IL-18, change from control / MCP-1, change from control / IP-10, change from control / GRO/KC, change from control / VEGF, change from control / LIX, change from control / MIP-2, change from control / TNF-a, change from control / RANTES, change from control / G-CSF, change from control / GM-CSF, change from control / IL-1a, change from control / Leptin, change from control: ↑: Increased from control; ↓: Decreased from control; —: no change; T: Trend towards significance; *p < 0.05; **p < 0.01; ***p < 0.001; conditions: rat serum, 15 weeks
Source text: as §1, §2

[3] = Chronic feeding of ketone supplements: weight and caloric intake; type: in vivo, Sprague Dawley rats; conditions: for Approximate caloric intake compared to controls: rats, following adaptation to diet (weeks 13-15)
Source text: as §1, §2

Ube3a-deficient mice [4] = experiment: Kainic acid-induced seizures; type: in vivo; conditions: kainic acid 20 mg/kg i.p.; 10 and 45 minutes post-administration; AS treated vs AS control
Description: (§3) Mice. Mice with the UBE3A null mutation (AS) were described previously (Jiang Y H et al., Neuron, 1998, 21(4):799-811). All experiments were performed on mice that have been backcrossed to the C57BL/6 line (Jackson Labs, Bar Harbor, Me.) for at least 5 generations. Female C57BL/6 mice containing the null mutation were bred with C57BL/6 (WT) males to produce maternally-deficient AS offspring and WT littermate controls. Audiogenic seizure experiments were performed on mice with the 129/SvEv background, with the same breeding scheme as the C57BL/6 mice. Animals were kept on a 12 hour light-dark cycle and food and water provided ad libitum. All animal testing procedures were approved by the Institutional Animal Care and Use Committee of the University of South Florida and followed the NIH guidelines for the care and use of laboratory animals.
(§4) Ketone ester administration. Control mice received standard rodent chow fed ad libitum. Mice receiving the ketone supplement were administered BD-AcAc2 with their standard rodent chow ad libitum.
Kainic acid injections. Mice were injected with 20 mg/kg of kainic acid i.p. and were monitored for seizure activity for 45 minutes and behavioral seizure score was recorded (modified Racine's scale).

[5] = Blood glucose and ketone levels in AS mice; type: in vivo; conditions: for blood ketones: AS mice on KE diet vs WT and AS controls; for blood glucose: AS mice on KE diet vs WT and AS mice on control diet
Description: as §4
Blood glucose and ketone levels. Blood was collected from the tip of the tail weekly using the Precision Xtra system with both glucose and ketone test strips, each requiring 0.6 μL samples.
(§5) The inventors hypothesized that supplemental ketone administration would decrease seizure frequency, increase seizure threshold, and improve hippocampal-dependent cognition and motor learning deficiencies.

Ube3a-deficient mice [6] = experiment: Novel object recognition; type: in vivo; conditions: AS mice, 24 hours following training
Description: as §3, §4
Novel Object Recognition. Novel object recognition was used to evaluate recognition memory. Following habituation to an open field arena, mice were allowed to explore the arena containing two identical objects for 15 minutes. 24 hours following training, a novel object replaced one of the old objects and mice were allowed to explore for 5 minutes.

Ube3a-deficient mice [7] = experiment: Induced audiogenic seizures; type: in vivo; conditions: for latency to seize: AS treated vs AS control mice, audiogenic seizures
Description: as §3, §4
Induced audiogenic seizures. Seizures were induced by exposing mice to a 120-dB white noise in a sound-attenuated chamber until seizures occurred or for a maximum of 60 s. Both seizure frequency and threshold (time until seizures began) were recorded.

Ube3a-deficient mice [8] = experiment: Rotarod testing; type: in vivo; conditions: AS mice, treated vs AS littermate controls
Description: as §3, §4
Rotarod testing. Mice were placed on a rotating rod (Rotarod, Ugo Basile, Italy) that accelerated from 4 to 40 rpm. For two consecutive days, four trials were performed per day with a 45-60 min interval between trials. The maximum duration of each trial was 5 minutes. The time that the mice fell off the rod was recorded. […]

Ube3a-deficient mice [9] = experiment: Associative fear conditioning; type: in vivo; conditions: AS mice
Description: as §3, §4
Associative fear conditioning. Fear conditioning was used to assess hippocampal function and associative learning and memory. Training included 2 shock-tone (CS/US) pairings. Detailed methods have been previously described (Trotter, J. et al., The Journal of Neuroscience, 2013, 33(39):[…]). […]

[10] = Group weights of AS mice on ketone ester diet; type: in vivo; conditions: 10% BD-AcAc2 in chow ad libitum, 8 weeks, vs AS controls
Description: as §3, §4, §5

[11] = listed as ketone ester supplement

CC(=O)CC(=O)OCCC(C)OC(=O)CC(C)=O (racemic) [LKE]
Alanine Aminotransferase (ALT) [1]: ns
Albumin [1]: ns
Alkaline Phosphatase (ALP) [1]: ns
Blood Urea Nitrogen (BUN) [1]: ns
Calcium [1]: ns
Chloride [1]: ns
Cholesterol [1]: ns
Creatinine [1]: ns
Gamma Glutamyltransferase (GGT) [1]: ns
Globulin [1]: ns
Glucose [1]: ns
Phosphorous [1]: ns
Potassium [1]: ns
Sodium [1]: ns
Total Bilirubin [1]: ns
Total Protein [1]: ns
Eotaxin, change from control [2]: ↓T
Fractalkine, change from control [2]: ↑**
G-CSF, change from control [2]: —
GM-CSF, change from control [2]: —
GRO/KC, change from control [2]: —
IFNy, change from control [2]: —
IL-1a, change from control [2]: —
IL-1b, change from control [2]: —
IL-2, change from control [2]: —
IL-4, change from control [2]: —
IL-5, change from control [2]: —
IL-6, change from control [2]: ↓T
IL-10, change from control [2]: —
IL-12(p70), change from control [2]: ↓*
IL-13, change from control [2]: ↓T
IL-17a, change from control [2]: —
IL-18, change from control [2]: —
IP-10, change from control [2]: —
LIX, change from control [2]: —
Leptin, change from control [2]: —
MCP-1, change from control [2]: —
MIP-1a, change from control [2]: ↑T
MIP-2, change from control [2]: —
RANTES, change from control [2]: —
TNF-a, change from control [2]: —
VEGF, change from control [2]: ↑*
Approximate caloric intake compared to controls [3]: ~+10 % kcal

CC(=O)CC(=O)OCCC(C)OC(=O)CC(C)=O (stereo not drawn) [BD-AcAc2, R,S-1,3-butanediol acetoacetate diester]
behavioral seizure score (modified Racine's scale) (Ube3a-deficient mice [4]): significant decrease in behavioral seizure score
blood ketones ([5]; listed as KE): elevated ketones
blood ketones [5, 11]: increases blood ketone levels
blood glucose ([5]; listed as KE): decreased blood glucose
blood glucose [5, 11]: decreases blood glucose
novel object recognition memory (Ube3a-deficient mice [6]): enhances novel object recognition memory
audiogenic seizure activity (Ube3a-deficient mice [7]; AS mice after 8 weeks on the diet, listed as ketone ester): decreased; also recorded: decreases seizure activity
audiogenic seizure frequency (Ube3a-deficient mice [7]; AS treated group after 8 weeks on the diet, 120-dB white noise): 86%
latency to seize (Ube3a-deficient mice [7]): increases latency to seize
latency to seize (Ube3a-deficient mice [7]; listed as ketone ester): increased
rotarod performance (Ube3a-deficient mice [8]): increases rotarod performance
contextual fear conditioning (hippocampal-dependent learning) (Ube3a-deficient mice [9]; 24 hours after training): improves hippocampal-dependent learning
fear conditioning training phase (freezing) (Ube3a-deficient mice [9]; training phase): does not affect the fear conditioning training phase
body weight / weight gain [10]: normalizes body weight
body weight / weight gain [10, 11]: normalizes weight
food consumption / caloric intake ([3]; male Sprague Dawley rats, fed ad libitum 15 weeks): adjusted food consumption to regulate caloric intake to a large extent

CC(=O)CC(=O)OCCC(C)OC(=O)CC(C)=O (racemic) [HKE]
Alanine Aminotransferase (ALT) [1]: Ns
Albumin [1]: Ns
Alkaline Phosphatase (ALP) [1]: Ns
Blood Urea Nitrogen (BUN) [1]: Ns
Calcium [1]: Ns
Chloride [1]: Ns
Cholesterol [1]: Ns
Creatinine [1]: Ns
Gamma Glutamyltransferase (GGT) [1]: Ns
Globulin [1]: Ns
Glucose [1]: Ns
Phosphorous [1]: Ns
Potassium [1]: Ns
Sodium [1]: Ns
Total Bilirubin [1]: Ns
Total Protein [1]: Ns
Eotaxin, change from control [2]: ↓**
Fractalkine, change from control [2]: ↑*
G-CSF, change from control [2]: ↓T
GM-CSF, change from control [2]: —
GRO/KC, change from control [2]: ↓T
IFNy, change from control [2]: ↓*
IL-1a, change from control [2]: ↓*
IL-1b, change from control [2]: ↓*
IL-2, change from control [2]: ↓T
IL-4, change from control [2]: —
IL-5, change from control [2]: ↓*
IL-6, change from control [2]: ↓*
IL-10, change from control [2]: ↓T
IL-12(p70), change from control [2]: ↓*
IL-13, change from control [2]: ↓**
IL-17a, change from control [2]: —
IL-18, change from control [2]: ↓T
IP-10, change from control [2]: ↓***
LIX, change from control [2]: ↓*
Leptin, change from control [2]: ↓*
MCP-1, change from control [2]: ↓T
MIP-1a, change from control [2]: —
MIP-2, change from control [2]: —
RANTES, change from control [2]: ↓**
TNF-a, change from control [2]: —
VEGF, change from control [2]: —
Approximate caloric intake compared to controls [3]: ~−7 % kcal
